Patent US6245790A, “Oxazole compounds useful as PGE2 agonists and antagonists” (Fujisawa Pharmaceutical Co., Ltd., priority 1997, dated 2001)

Tests used:
[1] = target: T1, prostanoide receptor subtype (human EP4) (Homo sapiens, UniProt P35408); test: Binding assay using expression of prostanoide receptor subtype ([3H]-PGE2 competition, COS-7 membrane fraction); conditions: compound at 10 μM, 1 hour at 30° C., COS-7 cells transfected human EP4
T1 construct: expressed in transfected cells; host or cells: COS-7
T1 sequence (P35408 whole entry): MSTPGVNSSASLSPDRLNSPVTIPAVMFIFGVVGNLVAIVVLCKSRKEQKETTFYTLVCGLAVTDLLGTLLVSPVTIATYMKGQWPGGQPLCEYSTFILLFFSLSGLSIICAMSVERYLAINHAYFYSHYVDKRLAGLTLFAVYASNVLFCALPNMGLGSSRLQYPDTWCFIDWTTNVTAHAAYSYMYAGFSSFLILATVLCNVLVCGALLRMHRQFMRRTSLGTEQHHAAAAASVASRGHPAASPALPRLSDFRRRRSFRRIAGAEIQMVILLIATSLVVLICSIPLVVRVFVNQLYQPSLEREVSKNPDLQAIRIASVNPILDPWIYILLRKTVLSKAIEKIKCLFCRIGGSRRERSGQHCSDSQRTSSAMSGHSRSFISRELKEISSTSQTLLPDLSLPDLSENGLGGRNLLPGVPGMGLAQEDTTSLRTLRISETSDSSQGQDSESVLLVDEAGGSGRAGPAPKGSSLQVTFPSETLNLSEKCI
Method: Binding Assay Using Expression of Prostanoide Receptor Subtype
The membrane fraction was prepared using COS-7 cells transfected prostanoide receptor subtype (human EP4).
The Standard assay mixture contained membrane fraction, [^3 H]-PGE2 in final volume of 0.25 ml was incubated for 1 hour at 30° C. The reaction was terminated by that the mixture was rapidly filtered through a glass filter (GF/B). Then the filter was washed by 4 ml of ice-cold buffer at two times. The radioactivity associated with the filter was measured by liquid scintillation counting.
In the experiment for competition of specific [^3 H]-PGE2 was added at a concentration of 10 μM. The following buffer was used in all reactions.
Buffer: 20 mM Mes (pH 6.0), 1 mM EDTA, 10 mM MgCl2

Mouse B Lymphocytes = test: Effect on PGE2-induced IgE and IgG1 secretion in mouse B lymphocytes (LPS and IL-4, ELISA); format: cell-based, mouse (BDF1); conditions: + 10^-5 M Test Compound, LPS and IL-4, 6 days, Mean ± S.E.M. (n = 4)
Method: Effect on IgE and IgG1 Secretion in Mouse B Lymphocytes
Inhibitory properties of a test compound against PGE2 -induced IgE and IgG1 secretion in isolated resting B lymphocytes of mice were tested. Resting mouse B lymphocytes were isolated from spleens of 12-week-old BDF1 male mice (Clea Japan Inc.) using adherent cell depletion, negative selection by FITC-anti-Thy 1.2 (30H12), FITC-anti-CD4 (GK1.5), FITC-anti-CD11b (M1/70) and FITC-anti-CD8a (5.-6.7) (Pharmingen) with anti-FITC Ab coating magnetic beads (PerSpective Daiagnostics) and Percoll gradient (Pharmacia). Resting B lymphocytes were cultured in flat-bottomed96-well microtiter plates (Becton Dickinson) at 1×10^6 cells per ml and preincubated with a test compound or DMSO control for 30 minutes. Then PGE2 were added at 10^-6 M. After 1 hour, LPS and IL-4 were added and incubated at 37° C. in a humidified atmosphere with 5% CO2. After 6 days, supernatants were collected and IgE and IgG1 were measured by the ELISA.

SMILES | inhibition at 10 µM [1] [%] | IgG1 secretion (Mouse B Lymphocytes; + 10^-6 M PGE2, # p < 0.01 v.s. Control (-PGE2)) [ng/mL] | IgE secretion (Mouse B Lymphocytes; + 10^-6 M PGE2, * p < 0.01 v.s. Control (+10^-6 M PGE2)) [ng/mL] | IgE secretion (Mouse B Lymphocytes; -PGE2) [ng/mL] | IgG1 secretion (Mouse B Lymphocytes; -PGE2) [ng/mL]
COc1cccc(C[C@@H]2CCC=C2c2nc(-c3ccccc3)c(-c3ccccc3)o2)c1 [Test Compound (1), (S)-2-(4,5-Diphenyloxazol-2-yl)-1-(3-methoxybenzyl)-2-cyclopentene] | > 80 |  |  |  | 
O=C(O)c1ccc(C[C@@H]2CCCC=C2c2nc(-c3ccccc3)c(-c3ccccc3)o2)cc1 [Test Compound (2), (S)-4-{[2-(4,5-Diphenyloxazol-2-yl)-2-cyclohexen-1-yl]-methyl}benzoic acid] | > 80 |  |  |  | 
NC(=O)COc1cccc(C[C@@H]2CCCC=C2c2nc(-c3ccccc3)c(-c3ccccc3)o2)c1 [Test Compound (3), (S)-{3-{[2-(4,5-Diphenyloxazol-2-yl)-2-cyclohexen-1-yl]-methyl}phenoxy}actamide] | > 80 |  |  |  | 
O=C([O-])c1cccc(C[C@@H]2CCCC=C2c2nc(-c3ccccc3)c(-c3ccccc3)o2)c1.[Na+] [Test Compound, Sodium (S)-3-{[2-(4,5-diphenyloxazol-2-yl)-2-cyclohexen-1-yl]methyl}benzoate] |  | 1607.6 ± 150.9 | 37.0 ± 7.0 | 21.2 ± 5.7 | 1053.0 ± 176.2
